Results taken from ChEMBL document CHEMBL5532734, “Lysosomal Degradation of Extracellular Targets: Innovations and Implications” (ACS Med Chem Lett, 2024).

target: T1, Sortilin (Homo sapiens, UniProt Q99523); test: Binding affinity to 6-His tagged sortilin (unknown origin) assessed as equilibrium dissociation constant by MST analysis
T1 sequence (Q99523 whole entry): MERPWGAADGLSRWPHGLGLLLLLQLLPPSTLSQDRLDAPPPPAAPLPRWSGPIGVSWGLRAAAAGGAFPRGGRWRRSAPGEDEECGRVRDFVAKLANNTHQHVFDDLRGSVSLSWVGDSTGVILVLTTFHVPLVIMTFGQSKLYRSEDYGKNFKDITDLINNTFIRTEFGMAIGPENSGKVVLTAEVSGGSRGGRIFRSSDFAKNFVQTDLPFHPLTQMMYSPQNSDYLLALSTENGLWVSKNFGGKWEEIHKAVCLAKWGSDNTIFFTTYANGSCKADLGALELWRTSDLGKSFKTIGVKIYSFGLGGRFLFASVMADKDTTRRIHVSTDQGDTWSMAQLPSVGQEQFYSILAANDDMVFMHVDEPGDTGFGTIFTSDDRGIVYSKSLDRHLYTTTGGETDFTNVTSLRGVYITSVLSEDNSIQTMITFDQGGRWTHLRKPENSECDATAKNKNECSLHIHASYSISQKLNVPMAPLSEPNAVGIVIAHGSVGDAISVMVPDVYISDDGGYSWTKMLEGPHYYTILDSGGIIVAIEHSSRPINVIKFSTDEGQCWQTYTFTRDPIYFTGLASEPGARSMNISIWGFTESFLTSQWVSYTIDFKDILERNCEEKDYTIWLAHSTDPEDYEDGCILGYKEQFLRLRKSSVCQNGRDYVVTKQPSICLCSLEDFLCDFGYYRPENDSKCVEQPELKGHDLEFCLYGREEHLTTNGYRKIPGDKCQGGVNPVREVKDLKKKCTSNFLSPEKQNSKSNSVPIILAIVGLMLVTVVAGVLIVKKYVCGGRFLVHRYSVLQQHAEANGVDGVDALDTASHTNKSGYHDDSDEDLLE

Q: Which Kd does the source give for CC(C)(C)CC[C@H](NC(=O)c1ccc(Oc2cccc(C(=O)NCCOCCOCCOCCOCCOCCNc3ncc(-c4ccc5c(n4)N(Cc4cccnc4C#N)C(C)(C)C5=O)cn3)c2)nc1)C(=O)O here?
A: Its Kd is under 1 nM.

Q: Which Kd does the source give for C[C@@H]1CN(c2ncc(-c3ccc4c(n3)N(Cc3cccnc3C#N)C(C)(C)C4=O)cn2)CCN1C(=O)COCCCCNC(=O)c1cccc(Oc2ccc(C(=O)N[C@@H](CCC(C)(C)C)C(=O)O)cn2)c1 here?
A: The Kd was under 1 nM.

Q: With CC(C)(C)CC[C@H](NC(=O)c1ccc(Oc2cccc(C(=O)NCCOCCOCCOCCOCCOCCOc3ncc(-c4ccc5c(n4)N(Cc4cccnc4C#N)C(C)(C)C5=O)cn3)c2)nc1)C(=O)O as the molecule, how does the Kd read?
A: The Kd was under 1 nM.

Q: How did the Kd turn out when C[C@@H]1CN(c2ncc(-c3ccc4c(n3)N(Cc3cccnc3C#N)C(C)(C)C4=O)cn2)CCN1C(=O)COCCCCCCCCNC(=O)c1cccc(Oc2ccc(C(=O)N[C@@H](CCC(C)(C)C)C(=O)O)cn2)c1 was run?
A: The Kd was under 1 nM.

Q: How did the Kd turn out when CC(C)(C)CC[C@H](NC(=O)c1ccc(Oc2cccc(OCCOCCOCCOCCOCCOCCOCCNC(=O)CCC[C@@H]3SC[C@@H]4NC(=O)N[C@@H]43)c2)nc1)C(=O)O was run?
A: The Kd was 1 nM.

Q: C[C@@H]1CN(c2ncc(-c3ccc4c(n3)N(Cc3cccnc3C#N)C(C)(C)C4=O)cn2)CCN1C(=O)CNC(=O)CCCCCCCCCNC(=O)c1cccc(Oc2ccc(C(=O)N[C@@H](CCC(C)(C)C)C(=O)O)cn2)c1 was tested. Which Kd did it give?
A: Its Kd is under 1 nM.
